Data taken from patent US5644055A, “Antihypertensive tricyclic azepine derivatives useful as inhibitors of enkephalinase and ACE” (Ciba-Geigy Corporation, priority 1995, dated 1997).

Columns and labels:
[1] = target: T1, neutral endopeptidase (NEP, EC 3.4.24.11) (Rattus norvegicus, UniProt P07861); experiment: in vitro inhibition of neutral endopeptidase (GAAP in vitro assay); type: biochemical; details: rat kidney cortex membranes, 500 μM glutaryl-Ala-Ala-Phe-2-naphthylamide, pH 7.4, 10 minutes at 25° C.
T1 construct: rat kidney cortex membranes; from tissue; host or cells: rat kidney cortex membranes
T1 sequence (P07861 1-750): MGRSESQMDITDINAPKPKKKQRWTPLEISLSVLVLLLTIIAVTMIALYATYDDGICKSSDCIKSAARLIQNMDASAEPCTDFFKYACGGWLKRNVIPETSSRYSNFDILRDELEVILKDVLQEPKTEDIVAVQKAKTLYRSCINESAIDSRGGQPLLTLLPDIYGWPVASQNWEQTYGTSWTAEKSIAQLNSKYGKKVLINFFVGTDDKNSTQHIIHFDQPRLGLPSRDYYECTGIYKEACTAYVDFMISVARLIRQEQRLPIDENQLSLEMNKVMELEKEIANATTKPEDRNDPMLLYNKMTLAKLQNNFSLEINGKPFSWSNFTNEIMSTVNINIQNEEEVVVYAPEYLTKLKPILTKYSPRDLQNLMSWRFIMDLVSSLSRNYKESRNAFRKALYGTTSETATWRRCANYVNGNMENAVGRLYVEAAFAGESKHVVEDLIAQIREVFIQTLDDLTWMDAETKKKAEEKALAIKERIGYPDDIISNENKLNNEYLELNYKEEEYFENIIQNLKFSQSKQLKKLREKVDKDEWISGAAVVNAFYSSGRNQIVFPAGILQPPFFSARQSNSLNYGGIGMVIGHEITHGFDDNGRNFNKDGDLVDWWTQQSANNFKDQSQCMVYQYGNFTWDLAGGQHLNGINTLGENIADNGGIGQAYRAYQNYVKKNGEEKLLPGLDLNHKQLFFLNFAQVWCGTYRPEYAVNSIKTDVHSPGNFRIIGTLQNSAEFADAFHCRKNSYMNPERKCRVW
Method: (§1) In vitro testing is most appropriate for the free carboxylic acids of the invention. The test compound is dissolved in dimethyl sulfoxide, ethanol, or 0.25M sodium bicarbonate solution, and the solution is diluted with buffer to the desired concentration.
The in vitro inhibition of neutral endopeptidase (NEP, EC 3.4.24.11) can be determined as follows:
Neutral endopeptidase 3.4.24.11 activity is determined by the hydrolysis of the substrate glutaryl-Ala-Ala-Phe-2-naphthylamide (GAAP) using a modified procedure of Orlowski and Wilk (1981). The incubation mixture (total volume 125 μl) contains 4.2 μg of protein (rat kidney cortex membranes prepared by method of Maeda et at, 1983), 50 mM tris buffer, pH 7.4 at 25° C., 500 μM substrate (final concentration), and leucine aminopeptidase M (2.5 μg). The mixture is incubated for 10 minutes at 25° C. and 100 μl of fast garnet (250 μg fast garnet/ml of 10% Tween 20 in 1M sodium acetate, pH 4.2) is added. Enzyme activity is measured spectrophotometrically at 540 nm. One unit of NEP 24.11 activity is defined as 1 nmol of 2-naphthylamine released per minute at 25° C. at pH 7.4. IC50 values are determined, i.e. the concentration of test compound required for 50% inhibition of the release of 2-naphthylamine.

[2] = target: T2, angiotensin-converting enzyme (Oryctolagus cuniculus, UniProt P12822); experiment: in vitro inhibition of the angiotensin-converting enzyme (hippuryl-histidyl-leucine substrate); type: biochemical; details: pH 8.3, 30 minutes at 37° C., read-out: IC50, inhibiting ACE in vitro assay
T2 sequence (P12822 34-1310): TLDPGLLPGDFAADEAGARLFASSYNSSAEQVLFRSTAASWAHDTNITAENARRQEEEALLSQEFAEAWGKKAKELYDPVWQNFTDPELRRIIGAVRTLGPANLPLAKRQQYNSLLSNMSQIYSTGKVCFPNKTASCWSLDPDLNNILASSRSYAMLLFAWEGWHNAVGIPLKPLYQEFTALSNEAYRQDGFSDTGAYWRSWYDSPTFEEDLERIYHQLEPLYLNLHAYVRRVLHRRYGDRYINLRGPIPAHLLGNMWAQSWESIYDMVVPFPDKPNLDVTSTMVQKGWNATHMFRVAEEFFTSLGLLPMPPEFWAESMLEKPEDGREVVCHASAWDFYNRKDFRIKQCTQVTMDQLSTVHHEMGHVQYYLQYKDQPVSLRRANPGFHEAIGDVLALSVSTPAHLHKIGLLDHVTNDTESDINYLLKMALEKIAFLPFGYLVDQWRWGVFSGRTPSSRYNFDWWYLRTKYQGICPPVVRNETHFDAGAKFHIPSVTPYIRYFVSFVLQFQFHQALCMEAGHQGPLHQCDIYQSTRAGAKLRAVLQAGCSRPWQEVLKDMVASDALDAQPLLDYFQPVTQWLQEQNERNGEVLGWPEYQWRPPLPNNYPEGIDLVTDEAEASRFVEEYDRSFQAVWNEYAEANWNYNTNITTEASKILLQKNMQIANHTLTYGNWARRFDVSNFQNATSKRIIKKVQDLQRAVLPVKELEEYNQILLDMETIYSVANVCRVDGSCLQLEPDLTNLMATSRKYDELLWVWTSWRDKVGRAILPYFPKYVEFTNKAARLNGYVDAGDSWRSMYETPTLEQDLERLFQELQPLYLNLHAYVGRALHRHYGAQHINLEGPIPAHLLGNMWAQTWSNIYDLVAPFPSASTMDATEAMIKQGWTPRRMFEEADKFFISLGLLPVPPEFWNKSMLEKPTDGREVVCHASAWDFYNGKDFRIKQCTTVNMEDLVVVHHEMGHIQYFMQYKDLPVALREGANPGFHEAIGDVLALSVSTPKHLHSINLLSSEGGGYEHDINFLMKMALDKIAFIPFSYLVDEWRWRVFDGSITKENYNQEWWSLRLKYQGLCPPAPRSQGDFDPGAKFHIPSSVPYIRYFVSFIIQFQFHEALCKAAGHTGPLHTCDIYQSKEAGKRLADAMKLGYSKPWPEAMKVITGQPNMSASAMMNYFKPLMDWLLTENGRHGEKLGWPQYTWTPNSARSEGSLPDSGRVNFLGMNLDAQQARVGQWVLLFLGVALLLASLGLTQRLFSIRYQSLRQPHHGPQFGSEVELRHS
Method: as §1
The buffer for the ACE assay is 300 mM NaCl, […] KH2 PO4 (pH 8.3). The reaction is initiated by the addition of 100 μl of hippuryl-histidyl-leucine (2 mg/ml) to tubes containing enzyme and drug in a volume of 150 μl and tubes are incubated for 30 minutes at 37° C. The reaction is terminated by the addition of 0.75 ml 0.6N NaOH. 100 μl of freshly prepared O-pthaldehyde solution (2 mg/ml in methanol) is added to the tubes, the contents are mixed and allowed to stand at room temperature. After 10 minutes, 100 μl of 6N HCl is added. The tubes are centrifuged and the supernatant optical density is read at 360 nm. The results are plotted against drug concentration to determine the IC50, i.e., the drug concentration which gives half the activity of the control sample containing no drug.

## O=C(N[C@H]1CCc2cccc3c2N(C1=O)[C@H](C(=O)O)C3)[C@@H](CS)Cc1ccc(-c2ccccc2)cc1 [6(b), 5-[((S)-2-biphenyl-4-ylmethyl-3-mercapto-propionyl)-(S)-amino]-1,2,4,5,6,7-hexahydroazepino[3,2,1-hi]indole-4-one-2-(S)-carboxylic acid]
[1]
  IC50: ~15 nM
[2]
  IC50: ~77 nM

## O=C(N[C@H]1CCc2cccc3c2N(C1=O)[C@H](C(=O)O)C3)[C@@H](S)Cc1ccccc1 [2(a), 5-[((S)-2-mercapto-3-phenylpropionyl)-(S)-amino]-1,2,4,5,6,7-hexahydroazepino[3,2,1-hi]indole-4-one-2-(S)-carboxylic acid]
[1]
  IC50: ~50 nM
[2]
  IC50: ~30 nM

## CC(C)[C@H](S)C(=O)N[C@H]1CCc2cccc3c2N(C1=O)[C@H](C(=O)O)C3 [5(a), 5-[((S)-2-mercapto-3-methylbutanoyl)-(S)-amino]-1,2,4,5,6,7-hexahydro-azepino[3,2,1-hi]indole-4-one-2-(S)-carboxylic acid]
[2]
  IC50: ~30 nM
